In experiment [1] the target is T1, human recombinant caspase-2 (Homo sapiens, UniProt P42575).
T1 construct: purchased BIOMOL, Plymouth, Pa., USA
T1 sequence (P42575 170-325 limits assumed): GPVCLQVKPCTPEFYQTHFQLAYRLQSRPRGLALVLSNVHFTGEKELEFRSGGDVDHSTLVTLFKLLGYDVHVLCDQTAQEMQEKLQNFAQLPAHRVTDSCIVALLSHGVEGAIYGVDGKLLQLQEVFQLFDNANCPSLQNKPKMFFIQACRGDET
T1 sequence (P42575 348-452 limits assumed): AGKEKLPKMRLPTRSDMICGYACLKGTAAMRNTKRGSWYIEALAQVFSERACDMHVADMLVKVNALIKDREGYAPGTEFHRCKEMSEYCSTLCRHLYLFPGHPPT
Kind of experiment: in vitro caspase-2 inhibition activity (Ac-VDVAD-AMC fluorogenic substrate cleavage). The experiment is classed as biochemical. The settings on record: for caspase-2 inhibition activity (in words), comparative compounds: compounds used for comparative purposes, structurally related to TRP601; for IC50: 30 minutes pre-incubation with inhibitors 0.001 to 2 μM, 200 μM Ac-VDVAD-AMC, read after 2 hours at 37° C., mean of three independent runs, read-out: IC50 (concentration which inhibits 50% of caspase activity). The protocol: The in vitro caspase-2 inhibition activity of 2-quinolinylcarbonyl-(S)-Valinyl-(S)-Aspartyl (methyl ester)-(S)-Valinyl-(S)-Alanyl-(R,S)-Aspartyl (methyl ester) 2,3,5,6-tetrafluorophenyl ester (TRP 701) in comparison to other compounds was evaluated according to the following protocol. Samples of human recombinant caspase-2 (25-50U, BIOMOL, Plymouth, Pa., USA) were pre-incubated for 30 minutes with inhibitors (0.001 to 2 μM) in final 100 μl final assay buffer (50 mM HEPES, pH 7.4, 100 mM NaCI, 0.1% CHAPS, 10 mM DTT, 1 mM EDTA, 10% glycerol) and then mixed with 200 μM of the fluorogenic caspase substrates (BIOMOL) Ac-VDVAD-AMC. An IC50 value corresponding to the concentration which inhibis 50% of caspase activity was determined from the dose-response sigmoid curve using the steady-state fluorescence approach. The cleavage of AMC-based substrate by human recombinant caspase-2 was measured after 2 hours at 37° C. on a fluorescence microplate reader by monitoring emission at 510 nm upon excitation at 405 nm.
Curves are the mean of three independent runs.

Experiment [2] addresses T1, human recombinant caspase-2. The settings on record: disclosed in WO 2005/105829; cited from earlier work.

The text below walks through data of US20120196892A1, “NOVEL CASPASE-2 INHIBITORS” (CHIESI FARMACEUTICI S.p.A., priority 2011, published 2012).

As for `CC(C)[C@H](NC(=O)c1ccc2ccccc2n1)C(=O)O` [M3, 2-quinolinylcarbonyl-S-Valine], the “caspase-2 inhibition activity (in words), comparative compounds” value in experiment [1] is “inactive”. For the compound `COC(=O)CC(NC(=O)[C@H](C)NC(=O)[C@@H](NC(=O)[C@H](CC(=O)OC)NC(=O)[C@@H](NC(=O)c1ccc2ccccc2n1)C(C)C)C(C)C)C(=O)COc1c(F)cccc1F` (mixture of isomers) [TRP 601, 5-(2,6-difluoro-phenoxy)-3(R,S)-{2(S)-[2(S)-(3-methoxycarbonyl-2(S)-{3-methyl-2(S)-[(quinoline-2-carbonyl)-amino]butyrylamino}-propionylamino)-3-methyl-butyrylamino]-propionylamino}-4-oxo-pentanoic acid methyl ester], the IC50 in experiment [1] was in the range of 0.06 to 0.09 µM. Also, the “caspase-2 selectivity (in words), background statement” value in experiment [2] is “selective caspase-2 inhibitor”.

In the case of “quinoline-2-carbonyl-(S)-Val-(S)-Asp(OMe)-(S)-Val-(S)-Ala-(R,S)-Ala((R,S)-CH2OC6H3(2,6-F2)) [TRP 600]”, the “caspase-2 inhibition activity (in words), comparative compounds” value in experiment [1] is “inactive”.

With `COC(=O)CC(NC(=O)[C@H](C)NC(=O)[C@@H](NC(=O)[C@H](CC(=O)OC)NC(=O)[C@@H](NC(=O)c1ccc2ccccc2n1)C(C)C)C(C)C)C(=O)COc1c(F)c(F)cc(F)c1F` (mixture of isomers) [TRP 701, 5-(2,3,5,6-tetrafluoro-phenoxy)-3(R,S)-{2(S)-[2(S)-(3-methoxycarbonyl-2(S)-{3-methyl-2(S)-[(quinoline-2-carbonyl)-amino]-butyrylamino}-propionylamino)-3-methyl-butyrylamino]-propionylamino}-4-oxo-pentanoic acid methyl ester], in experiment [1], the “caspase-2 selectivity (in words)” value is “selective caspase-2 inhibitor” and the IC50 fell in the range of 0.06 to 0.09 µM.
